Results reported in patent publication US20220387604A1, “SELECTIVE DUAL HISTONE DEACETYLASE 6/8 (HDAC6/8) DEGRADERS AND METHODS OF USE THEREOF” (DANA-FARBER CANCER INSTITUTE, INC., priority 2019, published 2022).

Legend:
[1] = system: other identified HDAC proteins; experiment: Quantitative proteomics of cellular protein abundance in Kelly cells: other identified HDAC proteins; assay type: cell-based, human; conditions: 1 μM, 5 hours, compared to DMSO control
Procedure: Lysis buffer (8 M Urea, 50 mM NaCl, 50 mM 4-(2hydroxyethyl)-1-piperazineethanesulfonic acid (EPPS) pH 8.5, protease and phosphatase inhibitors from Roche®) were added to the cell pellets and homogenized by 20 passes through a 21 gauge (1.25 in. long) needle to achieve a cell lysate with a protein concentration between 1-4 mg mL^−1. A micro-BCA assay (Pierce™) was used to determine the final protein concentration in the cell lysate. 200 μg of protein for each sample were reduced and alkylated as described in Donovan et al., Elife 7:e38430 (2018).
Proteins were precipitated using methanol/chloroform. Four volumes of methanol were added to the cell lysate, followed by one volume of chloroform, and finally three volumes of water. The mixture was vortexed and centrifuged to separate the chloroform phase from the aqueous phase. The precipitated protein was washed with three volumes of methanol, centrifuged and the resulting washed precipitated protein was allowed to air dry. The precipitated protein was resuspended in 4 M Urea, 50 mM HEPES pH 7.4, followed by dilution to 1 M urea with the addition of 200 mM EPPS, pH 8. Proteins were first digested with LysC (1:50; enzyme:protein) for 12 hours at room temperature. The LysC digestion was diluted to 0.5 M Urea with 200 mM EPPS pH 8 followed by digestion with trypsin (1:50; enzyme:protein) for 6 hours at 37° C. Tandem mass tag (TMT) reagents (Thermo Fisher Scientific) were dissolved in anhydrous acetonitrile (ACN) according to manufacturer's instructions.
Anhydrous ACN was added to each peptide sample to a final concentration of 30% v/v, and labeling was induced with the addition of TMT reagent to each sample at a ratio of 1:4 peptide:TMT label. […] The sample channels were combined at a 1:1:1:1:1:1:1:1:1:1:1 ratio, desalted using C18 solid phase extraction cartridges (Waters®) and analyzed by LC-MS for channel ratio comparison. Samples were then combined using the adjusted volumes determined in the channel ratio analysis and dried down in a speed vacuum. […]

[2] = target: T1, full length human HDAC8-EGFP (Homo sapiens, UniProt Q9BY41); experiment: HDAC8 reporter assay (HDAC8-EGFP with mCherry reporter); assay type: cell-based; conditions: 5 hour treatment, FIG. 6; hook effect at higher concentrations
T1 construct: Cells stably expressing the full length human HDAC8-EGFP with mCherry reporter; expressed in transfected cells; Cilantro2 vector (Addgene, 74450)
T1 sequence (Q9BY41 1-377): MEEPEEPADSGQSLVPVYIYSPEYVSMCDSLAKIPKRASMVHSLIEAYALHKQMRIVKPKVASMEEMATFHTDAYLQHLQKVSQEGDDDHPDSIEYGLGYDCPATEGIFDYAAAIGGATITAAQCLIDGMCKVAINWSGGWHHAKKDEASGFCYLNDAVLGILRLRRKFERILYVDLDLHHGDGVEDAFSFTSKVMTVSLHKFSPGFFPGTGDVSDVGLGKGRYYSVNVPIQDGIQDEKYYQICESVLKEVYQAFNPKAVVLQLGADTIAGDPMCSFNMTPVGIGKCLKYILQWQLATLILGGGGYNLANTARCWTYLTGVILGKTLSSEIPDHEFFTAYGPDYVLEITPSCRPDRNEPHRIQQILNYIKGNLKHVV
Procedure: Cells stably expressing the full length human HDAC8-EGFP with mCherry reporter in Cilantro2 vector (Addgene, 74450) were seeded at 30-50% confluency in 384-well plates with 50 μL FluoroBrite™ DMEM media (Thermo Fisher Scientific, A18967) containing 10% FBS per well a day before compound treatment. Compounds were dispensed using a D300e Digital Dispenser (HP), normalized to 0.5% DMSO, and incubated with cells for 5 hours. The assay plate was imaged immediately using an Acumen® High Content Imager (TTP Labtech) with 488 nm and 561 nm lasers in […] per well format. The resulting images were analyzed using CellProfiler™.
A series of image analysis steps (‘image analysis pipeline’) was constructed. First, the red and green channels were aligned and cropped to target the middle of each well (to avoid analysis of heavily clumped cells at the edges), and a background illumination function was calculated for both red and green channels of each well individually and subtracted to correct for illumination variations across the 384-well plate from various sources of error. An additional step was then applied to the green channel to suppress the analysis of large auto fluorescent artifacts and enhance the analysis of cell specific fluorescence by way of selecting for objects under a given size, 30 A.U., and with a given shape, speckles. mCherry-positive cells were then identified in the red channel filtering for objects between 8-60 pixels in diameter and using intensity to distinguish between clumped objects. The green channel was then segmented into GFP positive and negative areas and objects were labeled as GFP positive if at least 40% of it overlapped with a GFP positive area. The fraction of GFP-positive cells/mCherry-positive cells in each well was then calculated, and the green and red images were rescaled for visualization. The values for the concentrations that lead to a 50% degradation (DC50) were calculated using the nonlinear fit variable slope model in GraphPad Prism software.

| Structure (SMILES) | change of cellular protein levels of the other identified HDAC proteins (heat map FIG. 3) [1] | degradation of GFP tagged HDAC8 in the reporter cell lines [2] |
| --- | --- | --- |
| O=C(/C=C/c1ccc(CN(CCCCCNc2cccc3c2C(=O)N(C2CCC(=O)NC2=O)C3=O)CCc2c[nH]c3ccccc23)cc1)NO (stereo not drawn) [Compound 3, (E)-3-(4-(((2-(1H-indol-3-yl)ethyl)(5-((2-(2,6-dioxopiperidin-3-yl)-1,3-dioxoisoindolin-4-yl)amino)pentyl)amino)methyl)phenyl)-N-hydroxyacrylamide] | did not affect | degradation of GFP tagged HDAC8 |
| O=C(/C=C/c1ccc(CN(CCOCCOCCNc2cccc3c2C(=O)N(C2CCC(=O)NC2=O)C3=O)CCc2c[nH]c3ccccc23)cc1)NO (stereo not drawn) [Compound 1, (E)-3-(4-(((2-(1H-indol-3-yl)ethyl)(2-(2-(2-((2-(2,6-dioxopiperidin-3-yl)-1,3-dioxoisoindolin-4-yl)amino)ethoxy)ethoxy)ethyl)amino)methyl)phenyl)-N-hydroxyacrylamide] | did not affect | degradation of GFP tagged HDAC8 |
| O=C(/C=C/c1ccc(CN(CCOCCNc2cccc3c2C(=O)N(C2CCC(=O)NC2=O)C3=O)CCc2c[nH]c3ccccc23)cc1)NO (stereo not drawn) [Compound 2, (E)-3-(4-(((2-(1H-indol-3-yl)ethyl)(2-(2-((2-(2,6-dioxopiperidin-3-yl)-1,3-dioxoisoindolin-4-yl)amino)ethoxy)ethyl)amino)methyl)phenyl)-N-hydroxyacrylamide] | did not affect | degradation of GFP tagged HDAC8 |
